From patent publication US20250051825A1, “Ex Vivo Production of Compounds of Interest” (Nederlandse Organisatie voor …, priority 2021, published 2025) come the findings set out here.

Data set [1] relates to perfused porcine liver. As to the kind of experiment: Atorvastatin normothermic machine perfusion of ex vivo porcine liver, perfusate and bile analysed by LC/MS. As to conditions: for % billiary clearance (metabolite abundance as percentage of given Atorvastatin dose): 0-120 min, Atorva alone, 0.104 mg atorvastatin to portal vein, bile, n = 1. Type of data set: in vitro ADME, Sus scrofa domesticus. As for the experimental part:
Porcine Livers. Livers were obtained from a local slaughterhouse (Sus scrofa domesticus, approximately at the age of 6 months, with body weight between 100 and 120 kg). Pigs were sacrificed by a standardized procedure of electrocution followed by exsanguination. Thereafter, 3 L of blood was collected in a container supplemented with 25,000 IU of heparin. All abdominal organs were dissected outside the animal and collected. Within 20 minutes after termination, the vena porta was cannulated and directly flushed by gravity with 3 L of NaCl 0.9% (Baxter BV, Utrecht, The Netherlands) supplemented with 5000 IU of heparin followed by 2 L of ice-cold histidine-tryptophan-ketoglutarate solution (Plegistore, Warszawa, Poland). In the meantime, the arteria hepatica was dissected, cannulated, and subsequently flushed with histidine-tryptophan-ketoglutarate. At the laboratory, side branches were ligated, and the common bile duct was cannulated, whereas the ductus cysticus, derived from the gall bladder, was ligated. Normothermic Machine Perfusion. The porcine livers were perfused using the LiverAssist device (XVIVO, Groningen, The Netherlands). The machine consists of two rotary pumps that provide a pulsatile flow to the hepatic artery and a continuous flow to the portal vein. The system was filled with 2 L perfusion fluid containing red blood cells and perfusate (Table 2). […] Additionally, amino acids and vitamins were continuously provided to keep the liver metabolically active. Gas delivery to the LiverAssist consisted of 95% oxygen and 5% carbon dioxide at 2 L/min, and the temperature was set at 39 C (body temperature pigs). […] Arterial blood gas samples were taken hourly to monitor liver viability (PH, glucose, Na, K, lactate, etc.) using the i-STAT clinical analyzer (Abbot Point of Care Inc., Princeton, NJ). […] Time of starting the slow bolus was set at t=0 min. […] Drug concentrations in perfusate, bile and liver biopsies were determined by LC-MS/MS analysis as described below. […] Briefly, 20 μL of sample was extracted by adding 100 μL of acetonitrile containing internal standard. […] Samples were then mixed with 50 μL of water, vortexed and injected in to LC/MS for quantification. The mass spectrometer (AB Sciex API 5500) was operated in electrospray positive ion mode with the capillary voltage of 5.5 kV and Spray temperature of 550° C. The multiple reaction monitoring transitions used for all the compounds are shown table 4.

The subject of data set [2] is perfused porcine liver. As to the kind of experiment: Midazolam continuous portal administration to ex vivo perfused porcine liver, metabolite quantified by UPLC/MS.
Where [3] appears, read: 240 min of perfusion, input of 49.8 mg midazolam.
[4] abbreviates: from 40 mg midazolam (as summarised in description).

Some results are limits rather than exact numbers.

As to `CC(C)c1c(C(=O)Nc2ccccc2)c(-c2ccccc2)c(-c2ccc(F)cc2)n1CC[C@@H]1C[C@@H](O)CC(=O)O1` [Atorvastatin lactone], the “% billiary clearance (metabolite abundance as percentage of given Atorvastatin dose)” value in the data set with perfused porcine liver [1] is given as 9.17%.
Same read-out and setting: for `CC(C)c1c(C(=O)Nc2ccccc2O)c(-c2ccccc2)c(-c2ccc(F)cc2)n1CCC1CC(O)CC(=O)O1` (stereo not drawn) [2-hydroxy atorva lactone, 2-hydroxy atorvastatin lactone] the value was 3.48%.
In the case of `O=C(O)[C@H]1O[C@@H](OCc2ncc3n2-c2ccc(Cl)cc2C(c2ccccc2F)=NC3)[C@H](O)[C@@H](O)[C@@H]1O` [1-OH midazolam glucuronide, midazolam 1′O-glucuronide], in the data set on perfused porcine liver [2] (240 min after starting the portal administration of midazolam), the “presence in perfusate (chromatogram)” value was “(abundant) presence”. In the data set with perfused porcine liver [2] (setting [3]), the “Yield 1-OH midazolam glucuronide, Bile” value is 0.254 mg; the “Yield 1-OH midazolam glucuronide, Perfusate” value stood at 1.19 mg; the “Yield 1-OH midazolam glucuronide, Tissue” value worked out at 1.891 mg. For the same compound, the “Yield 1-OH midazolam glucuronide, Total” value with perfused porcine liver [2] (240 min of perfusion, input of 49.8 mg midazolam, sum of perfusate, bile, tissue) is given as 3.33 mg 1-OH midazolam glucuronide. In the data set on perfused porcine liver [2] (setting [4]), the “metabolite obtained from liver tissue” value was 2 mg; the “metabolite obtained from plasma and bile” value is on record as 1.5 mg; the total metabolite produced stood at 3.5 mg.
As to `CC(C)c1c(C(=O)Nc2ccccc2)c(-c2ccccc2)c(-c2ccc(F)cc2)n1CC[C@@H](O)C[C@@H](O)CC(=O)O` [atorvastatin, Atorvastatin, reference compound], in the data set with perfused porcine liver [1] (after the start of the bolus administration, slow bolus of 0.104 mg over 10 minutes to portal vein), the “time until atorvastatin was detected in the bile” value was at most 10 min. Further, the “parent compound secreted into the bile” value in the data set with perfused porcine liver [1] (within 120 min of perfusion, 0.104 mg to portal vein) was 13.0±5.6%.
On to `CC(C)c1c(C(=O)Nc2ccc(O)cc2)c(-c2ccccc2)c(-c2ccc(F)cc2)n1CCC1CC(O)CC(=O)O1` (stereo not drawn) [4-hydroxy atorva lactone, 4-hydroxy atorvastatin lactone], for which the “% billiary clearance (metabolite abundance as percentage of given Atorvastatin dose)” value with perfused porcine liver [1] is reported as 0.400%.
Regarding `CC(C)c1c(C(=O)Nc2ccc(O)cc2)c(-c2ccccc2)c(-c2ccc(F)cc2)n1CC[C@@H](O)C[C@@H](O)CC(=O)O` [4-hydroxy atorva, 4-hydroxy atorvastatin], the “% billiary clearance (metabolite abundance as percentage of given Atorvastatin dose)” value in the data set on perfused porcine liver [1] stood at 10.28%.
Still for that read-out and setting: under `CC(C)c1c(C(=O)Nc2ccccc2O)c(-c2ccccc2)c(-c2ccc(F)cc2)n1CCC(O)CC(O)CC(=O)O` (stereo not drawn) [2-hydroxy atorva, 2-hydroxy atorvastatin] stands 5.33%.
